Experimental data published in US20230102554A1 (GB002, INC., priority 2019, published 2023).

Tests used:
[1] = biological target: T1, Human PDGFRβ, cytoplasmic domain (GST-PDGFRβ) (Homo sapiens, UniProt P09619); assay: Human PDGFRβ biochemical inhibition assay (off-chip Mobility Shift Assay)
T1 construct: made in house
How it was run: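 GST-tagged cytoplasmic domain (aa 557-1106) from baculovirus was incubated 1 h at room temperature with compound, CSKtide, ATP at Km and Mg²⁺ in HEPES buffer, pH 7.5. Phosphorylated and unphosphorylated peptide were separated by off-chip mobility shift, and the product ratio P/(P+S) gave percent inhibition.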

[2] = biological target: T2, Human PDGFRα, cytoplasmic domain (GST-PDGFRα) (Homo sapiens, UniProt P16234); assay: Human PDGFRα biochemical inhibition assay (off-chip Mobility Shift Assay)
T2 construct: made in house
T2 sequence (P16234 550-1089 T674I): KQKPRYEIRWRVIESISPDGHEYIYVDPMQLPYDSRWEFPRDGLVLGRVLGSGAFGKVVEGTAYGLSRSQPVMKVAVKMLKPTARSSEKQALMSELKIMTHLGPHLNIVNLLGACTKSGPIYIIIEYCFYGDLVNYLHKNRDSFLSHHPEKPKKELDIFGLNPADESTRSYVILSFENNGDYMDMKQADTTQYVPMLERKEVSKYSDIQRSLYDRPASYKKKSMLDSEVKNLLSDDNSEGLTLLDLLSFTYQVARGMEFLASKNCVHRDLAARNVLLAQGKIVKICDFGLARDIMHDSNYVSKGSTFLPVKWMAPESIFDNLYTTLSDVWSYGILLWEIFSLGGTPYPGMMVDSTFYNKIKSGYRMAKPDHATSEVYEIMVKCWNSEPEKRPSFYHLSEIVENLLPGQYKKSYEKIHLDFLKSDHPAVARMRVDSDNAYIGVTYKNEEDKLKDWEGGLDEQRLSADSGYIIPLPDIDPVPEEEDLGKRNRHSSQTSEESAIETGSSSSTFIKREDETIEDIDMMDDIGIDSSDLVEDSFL

T1 sequence (P09619 with tags, fused parts or gaps): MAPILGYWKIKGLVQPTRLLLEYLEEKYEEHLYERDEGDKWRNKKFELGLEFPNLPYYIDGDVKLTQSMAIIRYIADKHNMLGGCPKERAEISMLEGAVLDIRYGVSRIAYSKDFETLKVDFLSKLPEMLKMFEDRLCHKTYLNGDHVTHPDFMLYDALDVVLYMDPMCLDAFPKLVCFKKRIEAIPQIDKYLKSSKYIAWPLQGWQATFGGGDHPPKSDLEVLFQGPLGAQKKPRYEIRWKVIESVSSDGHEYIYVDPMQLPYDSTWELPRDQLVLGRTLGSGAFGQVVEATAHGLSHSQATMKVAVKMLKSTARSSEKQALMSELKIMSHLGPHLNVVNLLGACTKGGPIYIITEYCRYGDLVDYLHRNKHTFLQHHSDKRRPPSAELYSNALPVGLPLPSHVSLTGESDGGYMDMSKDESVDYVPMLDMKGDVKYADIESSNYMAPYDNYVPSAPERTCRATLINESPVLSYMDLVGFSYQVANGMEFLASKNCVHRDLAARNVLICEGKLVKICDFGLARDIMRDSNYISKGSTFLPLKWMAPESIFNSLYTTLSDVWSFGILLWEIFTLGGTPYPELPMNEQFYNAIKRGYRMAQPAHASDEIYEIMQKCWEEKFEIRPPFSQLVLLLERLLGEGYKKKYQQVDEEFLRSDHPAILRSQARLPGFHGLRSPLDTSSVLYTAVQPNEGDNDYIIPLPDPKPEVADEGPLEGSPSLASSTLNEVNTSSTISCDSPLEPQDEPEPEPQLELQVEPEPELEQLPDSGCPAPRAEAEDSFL

For `C[C@H](Nc1cnc2cnn(C)c2n1)c1cccc(NC(=O)Nc2ccccc2)c1` [Compound 729, (S)-1-(3-(1-((1-methyl-1H-pyrazolo[3,4]pyrazin-6-yl)amino)ethyl)phenyl)-3-phenylurea], the IC50 [1] was under 300 nM and the IC50 [2] was under 300 nM.

For `C[C@H](Nc1cnc2cnn(C)c2n1)c1cccc(NC(=O)Nc2cccnc2)c1` [Compound 730, (S)-1-(3-(1-((1-methyl-1H-pyrazolo[3,4-b]pyrazin-6-yl)amino)ethyl)phenyl)-3-(pyridin-3-yl)urea], the IC50 [1] was 300 to 1000 nM and the IC50 [2] was under 300 nM.

`Cc1cncc(NC(=O)Nc2cccc([C@H](C)Nc3cnc4cnn(C)c4n3)c2)c1` [Compound 731, (S)-1-(3-(1-((1-methyl-1H-pyrazolo[3,4-b]pyrazin-6-yl)amino)ethyl)phenyl)-3-(5-methylpyridin-3-yl)urea] showed an IC50 [1] of under 300 nM and an IC50 [2] of under 300 nM.

`CCn1cc2ncc(N[C@@H](C)c3cccc(NC(=O)Nc4cncc(C)c4)c3)nc2n1` [Compound 732, (S)-1-(3-(1-((2-ethyl-2H-pyrazolo[3,4-b]pyrazin-6-yl)amino)ethyl)phenyl)-3-(5-methylpyridin-3-yl)urea] was tested, and the IC50 [1] was 300 to 1000 nM and the IC50 [2] was under 300 nM.

For `CCn1cc2ncc(N[C@@H](C)c3cccc(NC(=O)Nc4cnn(C(C)C)c4)c3)nc2n1` [Compound 733, (S)-1-(3-(1-((2-ethyl-2H-pyrazolo[3,4-b]pyrazin-6-yl)amino)ethyl)phenyl)-3-(1-isopropyl-1H-pyrazol-4-yl)urea], the IC50 [1] was 300 to 1000 nM and the IC50 [2] was under 300 nM.

Work on `CCn1cc2ncc(N[C@@H](C)c3cccc(NC(=O)Nc4cnc(C5CC5)c(C)c4)c3)nc2n1` [Compound 734, (S)-1-(6-cyclopropyl-5-methylpyridin-3-yl)-3-(3-(1-((2-ethyl-2H-pyrazolo[3,4-b]pyrazin-6-yl)amino)ethyl)phenyl)urea] yielded an IC50 [1] of under 300 nM and an IC50 [2] of under 300 nM.

In the case of `CCn1cc2ncc(N[C@@H](C)c3cccc(NC(=O)Nc4cc(C)ccn4)c3)nc2n1` [Compound 735, (S)-1-(3-(1-((2-ethyl-2H-pyrazolo[3,4-b]pyrazin-6-yl)amino)ethyl)phenyl)-3-(4-methylpyridin-2-yl)urea], the IC50 [1] is reported as under 300 nM and the IC50 [2] is reported as under 300 nM.

Work on `CCn1cc2ncc(N[C@@H](C)c3cccc(NC(=O)Nc4ccc(C(F)(F)F)nc4)c3)nc2n1` [Compound 736, (S)-1-(3-(1-((2-ethyl-2H-pyrazolo[3,4-b]pyrazin-6-yl)amino)ethyl)phenyl)-3-(6-(trifluoromethyl)pyridin-3-yl) urea] yielded an IC50 [1] of under 300 nM and an IC50 [2] of under 300 nM.

`CCn1cc2ncc(N[C@@H](C)c3cccc(NC(=O)Nc4ccc(C5CC5)nc4)c3)nc2n1` [Compound 737, (S)-1-(6-cyclopropylpyridin-3-yl)-3-(3-(1-((2-ethyl-2H-pyrazolo[3,4-b]pyrazin-6-yl)amino)ethyl)phenyl)urea] gave an IC50 [1] of under 300 nM and an IC50 [2] of under 300 nM.

For `CCn1cc2ncc(N[C@@H](C)c3cccc(NC(=O)Nc4ccc(NC)nc4)c3)nc2n1` [Compound 738, (S)-1-(3-(1-((2-ethyl-2H-pyrazolo[3,4-b]pyrazin-6-yl)amino)ethyl)phenyl)-3-(6-(methylamino)pyridin-3-yl)urea], the IC50 [1] was at least 1000 nM and the IC50 [2] was 300 to 1000 nM.

`CCn1cc2ncc(N[C@@H](C)c3cccc(NC(=O)Nc4ccc(N(C)C)nc4)c3)nc2n1` [Compound 739, (S)-1-(6-(dimethylamino)pyridin-3-yl)-3-(3-(1-((2-ethyl-2H-pyrazolo[3,4-b]pyrazin-6-yl)amino)ethyl)phenyl)urea] showed an IC50 [1] of at least 1000 nM and an IC50 [2] of under 300 nM.

Compound `CCn1cc2ncc(N[C@@H](C)c3cccc(NC(=O)Nc4cnn(CC(C)C)c4)c3)nc2n1` [Compound 740, (S)-1-(3-(1-((2-ethyl-2H-pyrazolo[3,4-b]pyrazin-6-yl)amino)ethyl)phenyl)-3-(1-isobutyl-1H-pyrazol-4-yl)urea] has an IC50 [1] of 300 to 1000 nM and an IC50 [2] of under 300 nM.

Compound `CCn1cc2ncc(N[C@@H](C)c3cccc(NC(=O)Nc4cnn(CC5CC5)c4)c3)nc2n1` [Compound 741, (S)-1-(1-(cyclopropylmethyl)-1H-pyrazol-4-yl)-3-(3-(1-((2-ethyl-2H-pyrazolo[3,4-b]pyrazin-6-yl)amino)ethyl)phenyl)urea] has an IC50 [1] of at least 1000 nM and an IC50 [2] of under 300 nM.

`CCn1cc2ncc(N[C@@H](C)c3cccc(NC(=O)Nc4cnc(N(C)C)c(C)c4)c3)nc2n1` [Compound 742, (S)-1-(6-(dimethylamino)-5-methylpyridin-3-yl)-3-(3-(1-((2-ethyl-2H-pyrazolo[3,4-b]pyrazin-6-yl)amino)ethyl)phenyl)urea] gave an IC50 [1] of under 300 nM and an IC50 [2] of under 300 nM.

`CCn1cc2ncc(N[C@@H](C)c3cccc(NC(=O)Nc4cnc(NC)c(C)c4)c3)nc2n1` [Compound 743, (S)-1-(3-(1-((2-ethyl-2H-pyrazolo[3,4-b]pyrazin-6-yl)amino)ethyl)phenyl)-3-(5-methyl-6-(methylamino)pyridin-3-yl)urea] gave an IC50 [1] of 300 to 1000 nM and an IC50 [2] of under 300 nM.

For `Cc1cncc(NC(=O)c2cccc([C@H](C)Nc3cnc4cnn(C)c4n3)c2)c1` [Compound 744, (S)-3-(1-((1-methyl-H-pyrazolo[3,4-b]pyrazin-6-yl)amino)ethyl)-N-(5-methylpyridin-3-yl)benzamide], the IC50 [1] was at least 1000 nM and the IC50 [2] was under 300 nM.

With `Cc1cncc(C(=O)Nc2cccc([C@H](C)Nc3cnn4ccc(-c5cnn(C)c5)cc34)c2)c1` [Compound 745, (S)-5-methyl-N-(3-(1-((5-(1-methyl-1H-pyrazol-4-yl)pyrazolo[1,5-a]pyridin-3-yl)amino)ethyl)phenyl) nicotinamide] the IC50 [1] was at least 1000 nM and the IC50 [2] was at least 1000 nM.

Compound `Cc1cncc(C(=O)Nc2cccc([C@H](C)Nc3cnn4cc(-c5cnn(C)c5)ccc34)c2)c1` [Compound 746, (S)-5-methyl-N-(3-(1-((6-(1-methyl-1H-pyrazol-4-yl)pyrazolo[1,5-a]pyridin-3-yl)amino)ethyl)phenyl) nicotinamide] has an IC50 [1] of under 300 nM and an IC50 [2] of under 300 nM.

Work on `Cc1cncc(C(=O)Nc2cccc([C@H](C)Nc3cncc4nn(C)cc34)c2)c1` [Compound 747, (S)-5-methyl-N-(3-(1-((2-methyl-2H-pyrazolo[3,4-c]pyridin-4-yl)amino)ethyl)phenyl)nicotinamide] yielded an IC50 [1] of at least 1000 nM and an IC50 [2] of at least 1000 nM.

`Cc1cncc(C(=O)Nc2cccc([C@H](C)Nc3cncc4c3ccn4-c3cnn(C)c3)c2)c1` [Compound 748, (S)-5-methyl-N-(3-(1-((1-(1-methyl-1H-pyrazol-4-yl)-1H-pyrrolo[2,3-c]pyridin-4-yl)amino)ethyl)phenyl) nicotinamide] gave an IC50 [1] of 300 to 1000 nM and an IC50 [2] of under 300 nM.

For `Cc1cncc(C(=O)Nc2cccc([C@H](C)Nc3cncc4[nH]ncc34)c2)c1` [Compound 749, (S)-N-(3-(1-((1H-pyrazolo[3,4-c]pyridin-4-yl)amino)ethyl)phenyl)-5-methylnicotinamide], the IC50 [1] was at least 1000 nM and the IC50 [2] was at least 1000 nM.

`Cc1cncc(C(=O)Nc2cccc([C@H](C)Nc3cncc4c3cnn4C)c2)c1` [Compound 750, (S)-5-methyl-N-(3-(1-((1-methyl-1H-pyrazolo[3,4-c]pyridin-4-yl)amino)ethyl)phenyl)nicotinamide] showed an IC50 [1] of at least 1000 nM and an IC50 [2] of at least 1000 nM.

Work on `Cc1cncc(C(=O)Nc2cccc([C@H](C)Nc3cncc4c3c(C)nn4-c3cnn(C)c3)c2)c1` [Compound 751, (S)-5-methyl-N-(3-(1-((3-methyl-1-(1-methyl-1H-pyrazol-4-yl)-1H-pyrazolo[3,4-c]pyridin-4-yl)amino)ethyl)phenyl)nicotinamide] yielded an IC50 [1] of at least 1000 nM and an IC50 [2] of at least 1000 nM.
